These are literature values, as cited in patent US20260054267A1, “PRODUCTION OF ENCAPSULATED NANOPARTICLES AT COMMERCIAL SCALE” (ICEUTICA PTY LTD., priority 2009, published 2026).

For the data set the following is noted: slowly absorbed by the body.

The Tmax is the time at which the peak concentration occurs. As to `Cc1cnc(NC(=O)C2=C(O)c3ccccc3S(=O)(=O)N2C)s1` [Meloxicam], the Tmax was 4 to 5 h.
